The text below walks through data of ChEMBL document CHEMBL6127010, “NMR structures of small molecules bound to a model of a CUG RNA repeat expansion” (Bioorg Med Chem Lett, 2024).

In this test the test system is r(CUG) repeat/Muscleblind-like protein 1. Nature of the test: Inhibition of 5'-biotinylated r(CUG) repeat (unknown origin) to His6-tagged MBNL1 (unknown origin) complex formation preincubated for 5 mins followed by compound addition for 15 mins prior to streptavidin-XL664 and anti-His6-Tb antibody addition for 1 hr by TR-FRET method. It is filed as protein assay.
Broadly, the IC50 is the point on the concentration scale where inhibition reaches its midpoint. Low values mean inhibition by little substance, high ones a need for much substance. With `N=C(N)Nc1ccc(OC(=O)c2ccc(NC(=N)N)cc2)cc1`, the IC50 was determined as 8 µM. As for `NCCN1CCN=C1c1ccc(C(=O)Nc2ccc(C3=NCCN3)cc2)cc1`, the concentration for half-maximal inhibition (IC50) turned out to be 19 µM.

The compound `COc1cccc(Nc2cc(C)nc3ccc(C(=N)N)cc23)c1` yielded a concentration for half-maximal inhibition (IC50) of 100 µM.
